Data on 3 compounds can be found in patent publication US20140005268A1, “PHARMACEUTICAL COMPOSITION FOR TREATING OXIDATIVE STRESS-INDUCED PATHOLOGY AND USE THEREOF” (priority 2011, published 2014).

The test system of the test is hemorrhoids (Goligher type I, II, III and IV). In words: Clinical test of rectally administered suppositories in volunteers with hemorrhoids (Goligher's classification). Format: in vivo. Particulars: adult human beings of both genders, 20 to 80 years old, daily dosage as in Table 1, average ± standard error, n=20. The protocol:
For such, various volunteers were randomly selected.
In short, volunteers, aging from 20 to 80 years old, were tested and observed for 28 days by rectally administering suppositories of 2 g each, containing the active ingredients in the indicated proportion: methionine (170 mg/day), cysteine (20 mg/day) and phenylalanine (10 mg/day) each.
The indicated values in the Table are average values in 20 experiments±standard errors (n=20).
Regarding `N[C@@H](CS)C(=O)O` [L-cysteine], the “Bleeding inhibition after 72 h (%)” value was determined as 10 ± 1% and the “Relapse after 5 years (%)” value came to 80 ± 8%.

On to `N[C@@H](Cc1ccccc1)C(=O)O` [L-phenylalanine], for which the “Bleeding inhibition after 72 h (%)” value turned out to be 2 ± 1% and the “Relapse after 5 years (%)” value amounted to 90 ± 9%.

In the case of `CSCC[C@H](N)C(=O)O` [L-methionine], the “Bleeding inhibition after 72 h (%)” value came out at 70 ± 7% and the “Relapse after 5 years (%)” value is on record as 15 ± 2%.
